Results on one substance are retold here after patent publication US7045497B1, “Use of peptide” (Takeda Chemical Industries, Ltd., priority 1998, dated 2006).

This test deals with oxytocin secretion. Briefly: Effect of third intraventricular administration of PrRP (19P2-L31) on amount of oxytocin secreted in plasma (radioimmunoassay). The format is in vivo, Mature male Wistar rats. As to the method: Mature male Wistar rats (weighing 350 to 380 g at the time of surgery) were anesthetized by intraperitoneal administration of 50 mg/kg pentobarbital, and were fixed in a rat brain stereotactic instrument. The brace bar was lowered 3.3 mm from the intra-oral line. The cranial bone was exposed, and a dental drill was used to perforate the bone in order to implant a guide cannula AG-12 (inside diameter 0.4 mm, outside diameter 0.5 mm, Eicom) into the third ventricle. Anchor screws were embedded in four locations around the cannula. The stainless steel guide cannula AG-12 was inserted to a position at the top of the third ventricle. Position coordinates were AP: +7.1 mm, L: 0.0 mm, and H: +2.0 mm, in accordance with the atlas of Paxinos and Watson (1986). The guide cannula was secured to the cranial bone using instant adhesive, dental cement, and the anchor screws. A stainless steel dummy cannula AD-12 (outside diameter 0.35 mm, Eicom) was inserted into the guide cannula and secured with a cap nut (Eicom). Following surgery, the rats were bred in individual cages.
Animal were given about 1 week to recover after implantation of the guide cannulas, and blood was drawn as the animals were allowed to move freely. Rats which had undergone the aforementioned surgery were anesthetized by intraperitoneal administration of 50 mg/kg pentobarbital. […]

No end group written: not given here.

Consider “PrRP (19P2-L31): physiologically active peptide, ligand for G protein-coupled receptors phGR3 (GPR10) and UHR-1; described in Nature 393:272–276 (1998) and WO 97/24436 (SRTHRHSMEIRTPDINPAWYASRGIRPVGRF; ends and bridges not checked; UniProt P81277 23-53, looked up)”, for which the “oxytocin concentration in blood relative to control group” value (rat, 10 nmol to the third ventricle, 5 minutes after administration, FIG. 2) is “about 2 times”. For the same substance, the “oxytocin concentration in blood after intraventricular administration” value (rats, intraventricular administration, result in words) is reported as “elevated oxytocin concentration in blood”.
